Assay results reported in the supplement of paper PMC4862054.

Columns and labels:
Conditions in all cases: incubation time: 72 h
CAL-148 [1] = assay: drug sensitivity score (DSS), CellTiter-Glo (DSS (AUC-based score)); higher = stronger drug effect (viability inhibition or cytotoxicity); extreme values may be limits of the assay
Procedure, shortened: (§1)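 Compound was dispensed into 384-well plates at 5 concentrations in 10-fold steps spanning a 10,000-fold range chosen for each compound, and 20 µl of breast cancer cell suspension was added before 72 h of incubation. CellTox Green fluorescence was read at 485/520 nm, followed by CellTiter-Glo luminescence after 10 min at room temperature. Values on each plate were normalised to 0.1 % DMSO and a positive kill control. The drug sensitivity score came from the area under the fitted dose-response curve.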

HCC1143 [2] = assay: as above
Procedure, shortened: as §1

MCF-10A = assay: as above
Procedure, shortened: as §1

MDA-MB-468 [3] = assay: as above
Procedure, shortened: as §1

HCC1599 [4] = assay: as above
Procedure, shortened: as §1

SK-BR-3 [5] = assay: as above
Procedure, shortened: as §1

MDA-MB-436 [6] = assay: as above
Procedure, shortened: as §1

DU-4475 [7] = assay: normalised viability (% of control), CellTiter-Blue; higher = more viable cells (about 100 = DMSO control)
Description: (§2)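 DSRT, CellTiter-Blue viability, 72 h incubation. Signal is normalised to DMSO and benzethonium chloride controls. Value is the normalised response at dose 3.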

CAL-148 [8] = assay: as above
Description: as §2

HCC1937 = assay: as above
Description: as §2

MFM-223 = assay: as above
Description: as §2

HCC1143 [9] = assay: as above
Description: as §2

MDA-MB-468 [10] = assay: as above
Description: as §2

HCC1599 [11] = assay: as above
Description: as §2

Hs578T = assay: as above
Description: as §2

CAL-120 = assay: as above
Description: as §2

BT-549 = assay: as above
Description: as §2

HDQ-P1 = assay: as above
Description: as §2

MDA-MB-453 = assay: as above
Description: as §2

CAL-85-1 [12] = assay: as above
Description: as §2

MDA-MB-231 = assay: as above
Description: as §2

SK-BR-3 [13] = assay: as above
Description: as §2

CAL-51 [14] = assay: as above
Description: as §2

MDA-MB-436 [15] = assay: as above
Description: as §2

BT-474 = assay: as above
Description: as §2

DU-4475 [16] = assay: normalised viability (% of control), CellTiter-Blue; higher = more viable cells (about 100 = DMSO control); remark: listed apart in the source
Procedure, shortened: (§3)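 Compound dissolved in 5 µl medium was pre-loaded into 384-well plates, and breast cancer cell lines in 20 µl suspension were seeded on top and incubated 72 h. After adding 2.5 µl CellTiter-Blue reagent for 2 h at 37 °C, fluorescence was read at 560/590 nm. Plates were normalised to vehicle (100) and a positive kill control (0), with Z'-factor quality control. Each value is normalised viability at a single listed concentration from the series.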

CAL-148 [17] = assay: as above; remark: listed apart in the source
Procedure, shortened: as §3

CAL-85-1 [18] = assay: as above; remark: listed apart in the source
Procedure, shortened: as §3

CAL-51 [19] = assay: as above; remark: listed apart in the source
Procedure, shortened: as §3

SMILES: Nc1ccccc1NC(=O)c1ccc(CNC(=O)OCc2cccnc2)cc1 [Entinostat]
- drug sensitivity score (CAL-148 [1]): 4.83
- drug sensitivity score (HCC1143 [2]): 3.36
- drug sensitivity score (MCF-10A): 0
- drug sensitivity score (MDA-MB-468 [3]): 4.34
- drug sensitivity score (HCC1599 [4]): 4.34
- drug sensitivity score (SK-BR-3 [5]): 6.67
- drug sensitivity score (MDA-MB-436 [6]): 2.51
- normalised viability (DU-4475 [7]; 10 nM): 117%
- normalised viability (CAL-148 [8]; 10 nM): 93.3%
- normalised viability (HCC1937; 100 nM): 104%
- normalised viability (MFM-223; 100 nM): 100%
- normalised viability (HCC1143 [9]; 100 nM): 82.2%
- normalised viability (MDA-MB-468 [10]; 100 nM): 110%
- normalised viability (HCC1599 [11]; 100 nM): 93.3%
- normalised viability (Hs578T; 100 nM): 93.3%
- normalised viability (CAL-120; 100 nM): 85.4%
- normalised viability (BT-549; 100 nM): 91.5%
- normalised viability (HDQ-P1; 10 nM): 102%
- normalised viability (MDA-MB-453; 10 nM): 120%
- normalised viability (CAL-85-1 [12]; 10 nM): 96.7%
- normalised viability (MDA-MB-231; 100 nM): 97.1%
- normalised viability (SK-BR-3 [13]; 100 nM): 85.6%
- normalised viability (CAL-51 [14]; 10 nM): 114%
- normalised viability (MDA-MB-436 [15]; 100 nM): 83.5%
- normalised viability (BT-474; 100 nM): 106%
- normalised viability (DU-4475 [16]; 300 nM): 97.9%
- normalised viability (CAL-148 [17]; 300 nM): 86.9%
- normalised viability (CAL-85-1 [18]; 300 nM): 109%
- normalised viability (CAL-51 [19]; 300 nM): 114%

SMILES: CC[C@@H]1C(=O)N(C)c2cnc(Nc3ccc(C(=O)NC4CCN(C)CC4)cc3OC)nc2N1C1CCCC1 [BI 2536]
- drug sensitivity score (CAL-148 [1]): 5.51
- drug sensitivity score (HCC1143 [2]): 15.7
- drug sensitivity score (MCF-10A): 9.18
- drug sensitivity score (MDA-MB-468 [3]): 19.5
- drug sensitivity score (HCC1599 [4]): 12.4
- drug sensitivity score (SK-BR-3 [5]): 25.7
- drug sensitivity score (MDA-MB-436 [6]): 14
- normalised viability (DU-4475 [7]; 1 nM): 91.7%
- normalised viability (CAL-148 [8]; 1 nM): 105%
- normalised viability (HCC1937; 10 nM): 25.9%
- normalised viability (MFM-223; 10 nM): 41.8%
- normalised viability (HCC1143 [9]; 10 nM): 62.8%
- normalised viability (MDA-MB-468 [10]; 10 nM): 48.5%
- normalised viability (HCC1599 [11]; 10 nM): 90.9%
- normalised viability (Hs578T; 10 nM): 83.5%
- normalised viability (CAL-120; 10 nM): 34.1%
- normalised viability (BT-549; 10 nM): 36.9%
- normalised viability (HDQ-P1; 1 nM): 102%
- normalised viability (MDA-MB-453; 1 nM): 83.2%
- normalised viability (CAL-85-1 [12]; 1 nM): 90%
- normalised viability (MDA-MB-231; 10 nM): 52.6%
- normalised viability (SK-BR-3 [13]; 10 nM): 15.8%
- normalised viability (CAL-51 [14]; 1 nM): 89.4%
- normalised viability (MDA-MB-436 [15]; 10 nM): 77.8%
- normalised viability (BT-474; 10 nM): 44.4%
- normalised viability (DU-4475 [16]; 30 nM): 18.1%
- normalised viability (CAL-148 [17]; 30 nM): 25.5%
- normalised viability (CAL-85-1 [18]; 30 nM): 45.3%
- normalised viability (CAL-51 [19]; 30 nM): 25.8%

SMILES: N#Cc1ccc(C(c2ccc(C#N)cc2)n2cncn2)cc1 [Letrozole]
- drug sensitivity score (CAL-148 [1]): 0
- drug sensitivity score (HCC1143 [2]): 0
- drug sensitivity score (MCF-10A): 0
- drug sensitivity score (MDA-MB-468 [3]): 0
- drug sensitivity score (HCC1599 [4]): 0
- drug sensitivity score (SK-BR-3 [5]): 0
- drug sensitivity score (MDA-MB-436 [6]): 0
- normalised viability (DU-4475 [7]; 10 nM): 99.8%
- normalised viability (CAL-148 [8]; 10 nM): 87.8%
- normalised viability (HCC1937; 100 nM): 97.4%
- normalised viability (MFM-223; 100 nM): 74.9%
- normalised viability (HCC1143 [9]; 100 nM): 77.9%
- normalised viability (MDA-MB-468 [10]; 100 nM): 91.3%
- normalised viability (HCC1599 [11]; 100 nM): 104%
- normalised viability (Hs578T; 100 nM): 88.1%
- normalised viability (CAL-120; 100 nM): 76.4%
- normalised viability (BT-549; 100 nM): 97%
- normalised viability (HDQ-P1; 10 nM): 101%
- normalised viability (MDA-MB-453; 10 nM): 88%
- normalised viability (CAL-85-1 [12]; 10 nM): 90.3%
- normalised viability (MDA-MB-231; 100 nM): 84%
- normalised viability (SK-BR-3 [13]; 100 nM): 83%
- normalised viability (CAL-51 [14]; 10 nM): 110%
- normalised viability (MDA-MB-436 [15]; 100 nM): 106%
- normalised viability (BT-474; 100 nM): 102%
- normalised viability (DU-4475 [16]; 300 nM): 81.2%
- normalised viability (CAL-148 [17]; 300 nM): 101%
- normalised viability (CAL-85-1 [18]; 300 nM): 86.4%
- normalised viability (CAL-51 [19]; 300 nM): 104%
